Series [1] deals with Gossypium hirsutum. Description: Toxicity in Gossypium hirsutum cv. Hakushuu (cotton) assessed as seedling death under green house at 0.5 kg/ha at 25 degC measured after 4 weeks by crop selectivity assay. It counts as organism-based. Conditions: in vivo, 672 h.
The subject of series [2] is Echinochloa crus-galli. Description: Herbicidal activity against Echinochloa crus-galli (barnyard grass) assessed as seedling death under green house at 1 kg/ha at 25 degC measured after 4 weeks. Type of series: functional, organism-based.
In series [3] the test system is Glycine max. Description: Toxicity in Glycine max cv. Tamahomare (soybean) assessed as seedling death under green house at 0.5 kg/ha at 25 degC measured after 4 weeks by crop selectivity assay. Conditions: in vivo, 672 h. Type of series: organism-based.
In series [4] the test system is Digitaria ciliaris. Description: Herbicidal activity against Digitaria ciliaris assessed as seedling death under green house at 0.5 kg/ha at 25 degC measured after 4 weeks. It counts as functional, organism-based.
In series [5] the test system is Digitaria ciliaris. Description: Herbicidal activity against Digitaria ciliaris assessed as seedling death under green house at 1 kg/ha at 25 degC measured after 4 weeks. Type of series: functional, organism-based.
Series [6] has as its system Triticum aestivum. The series can be described thus: Toxicity in Triticum aestivum cv. Nohrin-61 (wheat) assessed as seedling death under green house at 0.5 kg/ha at 25 degC measured after 4 weeks by crop selectivity assay. Type of series: organism-based. Conditions: in vivo, 672 h.
Series [7] concerns Gossypium hirsutum. Description: Toxicity in Gossypium hirsutum cv. Hakushuu (cotton) assessed as seedling death under green house at 1 kg/ha at 25 degC measured after 4 weeks by crop selectivity assay. It counts as organism-based. Conditions: in vivo, 672 h.
The subject of series [8] is Triticum aestivum. The series can be described thus: Toxicity in Triticum aestivum cv. Nohrin-61 (wheat) assessed as seedling death under green house at 1 kg/ha at 25 degC measured after 4 weeks by crop selectivity assay. Conditions: in vivo, 672 h. Type of series: organism-based.
Series [9] relates to Glycine max. The series can be described thus: Toxicity in Glycine max cv. Tamahomare (soybean) assessed as seedling death under green house at 1 kg/ha at 25 degC measured after 4 weeks by crop selectivity assay. It counts as organism-based. Conditions: in vivo, 672 h.
The test system of series [10] is Echinochloa crus-galli. Description: Herbicidal activity against Echinochloa crus-galli (barnyard grass) assessed as seedling death under green house at 0.5 kg/ha at 25 degC measured after 4 weeks. It counts as functional, organism-based.
Series [11] concerns Amaranthus viridis. The series can be described thus: Herbicidal activity against Amaranthus viridis assessed as seedling death under green house at 1 kg/ha at 25 degC measured after 4 weeks. Type of series: functional, organism-based.
Series [12] deals with Digitaria ciliaris. Description: Herbicidal activity against Digitaria ciliaris assessed as seedling death under green house at 2 kg/ha at 25 degC measured after 4 weeks. Type of series: functional, organism-based.
In series [13] the test system is Echinochloa crus-galli. Description: Herbicidal activity against Echinochloa crus-galli (barnyard grass) assessed as seedling death under green house at 2 kg/ha at 25 degC measured after 4 weeks. It counts as functional, organism-based.
The subject of series [14] is Persicaria lapathifolia. Description: Herbicidal activity against Persicaria lapathifolia assessed as seedling death under green house at 0.25 kg/ha at 25 degC measured after 4 weeks. Type of series: functional, organism-based.
Series [15] has as its system Amaranthus viridis. Description: Herbicidal activity against Amaranthus viridis assessed as seedling death under green house at 0.25 kg/ha at 25 degC measured after 4 weeks. It counts as functional, organism-based.
Series [16] concerns Glycine max. Description: Toxicity in Glycine max cv. Tamahomare (soybean) assessed as seedling death under green house at 0.25 kg/ha at 25 degC measured after 4 weeks by crop selectivity assay. Type of series: organism-based. Conditions: in vivo, 672 h.
Series [17] deals with Amaranthus viridis. Description: Herbicidal activity against Amaranthus viridis assessed as seedling death under green house at 0.5 kg/ha at 25 degC measured after 4 weeks. Type of series: functional, organism-based.
Series [18] relates to Gossypium hirsutum. Description: Toxicity in Gossypium hirsutum cv. Hakushuu (cotton) assessed as seedling death under green house at 0.25 kg/ha at 25 degC measured after 4 weeks by crop selectivity assay. It counts as organism-based. Conditions: in vivo, 672 h.
In series [19] the test system is Digitaria ciliaris. The series can be described thus: Herbicidal activity against Digitaria ciliaris assessed as seedling death under green house at 0.25 kg/ha at 25 degC measured after 4 weeks. Type of series: functional, organism-based.
Series [20] deals with Triticum aestivum. Description: Toxicity in Triticum aestivum cv. Nohrin-61 (wheat) assessed as seedling death under green house at 0.25 kg/ha at 25 degC measured after 4 weeks by crop selectivity assay. It counts as organism-based. The following applies: in vivo, 672 h.
The subject of series [21] is Persicaria lapathifolia. Description: Herbicidal activity against Persicaria lapathifolia assessed as seedling death under green house at 0.5 kg/ha at 25 degC measured after 4 weeks. It counts as functional, organism-based.

Activity calls are given as the source filed them. The calls are words filed in the database; no cut-off is given here.

Drawing on ChEMBL document CHEMBL3045011, “Synthesis and Herbicidal Activities of 2-(5-Isoxazolyloxy)-acetamide Derivatives” (J Pestic Sci, 1998), this text covers Activity for six compounds.

With `CN(C(=O)COc1cc(C(F)(F)F)no1)c1ccccc1`, the Activity entry in [1], in series [3], in [6] and in series [7] was “Non-toxic” in each case. The result in series [2], in [4] and in [5] was Active.
As to `Cc1c(C(F)(F)F)noc1OCC(=O)N(C)c1ccccc1`, the Activity entry in series [8], in series [9], in [1], in series [3] and in series [6] was “Non-toxic” each time. Moreover, the result in series [2], in series [10], in [4], in series [5] and in series [11] was Active.
As for `CN(C(=O)COc1onc(C(F)(F)F)c1-c1ccccc1)c1ccccc1`, the Activity entry in series [8], in series [9], in [1], in series [3], in [6] and in series [7] was “Non-toxic” throughout. In addition, the result in series [2], in [10], in series [4] and in [5] was Active.
For the compound `CCCCCCN(C)C(=O)COc1onc(C(F)(F)F)c1C`, the outcome in series [12] and in [13] was Active.
With `CN(C(=O)COc1nnc(C(F)(F)F)s1)c1ccccc1`, the result in [14], in series [15], in series [17], in [19] and in [21] was inactive. For the same compound, the Activity entry in [1], in series [3], in [16], in series [18], in [20] and in series [6] was “Non-toxic” each time.
Take `CN(C(=O)COc1nc2ccccc2s1)c1ccccc1` [MEFENACET]: the result in series [14], in series [15] and in [21] was inactive. The Activity entry in [1], in series [3], in series [16], in series [18], in series [20] and in series [6] was “Non-toxic” in each case.
